{
  "source": "patent US9822114B2",
  "about": "“Tricyclic oxazolidinone antibiotic compounds” (Idorsia Pharmaceuticals Ltd, priority 2008, dated 2017)",
  "tested_on": "M. catarrhalis A894",
  "test": "Minimal inhibitory concentration (MIC), microdilution method in cation-adjusted Mueller-Hinton Broth (CLSI M7-A7)",
  "type": "cell-based",
  "settings": "strain A894; for MIC: Moraxella catarrhalis",
  "experimental": "Minimal inhibitory concentrations (MICs; mg/1) were determined in cation-adjusted Mueller-Hinton Broth by a microdilution method following the description given in “Methods for Dilution Antimicrobial Susceptibility Tests for Bacteria that Grow Aerobically”, Approved standard, 7th ed., Clinical and Laboratory Standards Institute (CLSI) Document M7-A7, Wayne, Pa., USA, 2006.",
  "data": [
    {"molecule": "O=C1CSc2ccc(N3C[C@@H](CCCNC[C@@H]4Cn5c(=O)ccc6cccc4c65)OC3=O)cc2N1", "note": "(racemic) [Example 83, (RS)-1-({3-[(RS)-2-oxo-3-(3-oxo-3,4-dihydro-2H-benzo[1,4]thiazin-6-yl)-oxazolidin-5-yl]-propylamino}-methyl)-1,2-dihydro-pyrrolo[3,2,1-ij]quinolin-4-one]", "values": [
      {"measurement": "MIC", "result": "≤ 0.031", "unit": "µg/mL"}
    ]},
    {"molecule": "COc1nc2ccc(F)c3c2n(c1=O)C[C@@H]3NCCC[C@@H]1CN(c2ccc3c(c2)NC(=O)CO3)C(=O)O1", "note": "[Example 111, (R)-7-fluoro-2-methoxy-6-{3-[(R)-2-oxo-3-(3-oxo-3,4-dihydro-2H-benzo[1,4]oxazin-6-yl)-oxazolidin-5-yl]-propylamino}-5,6-dihydro-pyrrolo[1,2,3-de]quinoxalin-3-one]", "values": [
      {"measurement": "MIC", "result": 0.125, "unit": "µg/mL"}
    ]},
    {"molecule": "O=C1CSc2ccc(N3C[C@H](CCNC[C@@H]4Cn5c(=O)ccc6nccc4c65)OC3=O)cc2N1", "note": "[Example 78, (R)-4-({2-[(S)-2-oxo-3-(3-oxo-3,4-dihydro-2H-benzo[1,4]thiazin-6-yl)-oxazolidin-5-yl]-ethylamino}-methyl)-4,5-dihydro-pyrrolo[3,2,1-de][1,5]naphthyridin-7-one]", "values": [
      {"measurement": "MIC", "result": "≤ 0.031", "unit": "µg/mL"}
    ]},
    {"molecule": "C#Cc1ccc2ccc(=O)n3c2c1C(NCCC[C@@H]1CN(c2ccc4c(c2)NC(=O)CS4)C(=O)O1)C3", "note": "(mixture of isomers) [Example 180, (RS)-9-ethynyl-1-{3-[(R)-2-oxo-3-(3-oxo-3,4-dihydro-2H-benzo[1,4]thiazin-6-yl)-oxazolidin-5-yl]-propylamino}-1,2-dihydro-pyrrolo[3,2,1-ij]quinolin-4-one]", "values": [
      {"measurement": "MIC", "result": "≤ 0.031", "unit": "µg/mL"}
    ]},
    {"molecule": "O=C1CSc2ccc(N3C[C@H](CCNCC4Cn5c(=O)ccc6cccc4c65)OC3=O)cc2N1", "note": "(mixture of isomers) [Example 61, (RS)-1-({2-[(S)-2-oxo-3-(3-oxo-3,4-dihydro-2H-benzo[1,4]thiazin-6-yl)-oxazolidin-5-yl]-ethylamino}-methyl)-1,2-dihydro-pyrrolo[3,2,1-U]quinolin-4-one]", "values": [
      {"measurement": "MIC for M. catarrhalis A894", "result": "≦0.031 mg/l"}
    ]},
    {"molecule": "O=C1COc2ccc(N3C[C@H](CCCN[C@H]4Cn5c(=O)ccc6ncc(F)c4c65)OC3=O)nc2N1", "note": "[Example 144, (R)-3-fluoro-4-{3-[(S)-2-oxo-3-(3-oxo-3,4-dihydro-2H-pyrido[3,2-b][1,4]oxazin-6-yl)-oxazolidin-5-yl]-propylamino}-4,5-dihydro-pyrrolo[3,2,1-de][1,5]naphthyridin-7-one]", "values": [
      {"measurement": "MIC", "result": "≤ 0.031", "unit": "µg/mL"}
    ]},
    {"molecule": "O=C1CSc2ccc(N3C[C@@H](CNCCC4CN5C(=O)CCc6ccc(F)c4c65)OC3=O)cc2N1", "note": "(mixture of isomers) [Example 24, (1RS)-9-fluoro-1-(2-{[(R)-2-oxo-3-(3-oxo-3,4-dihydro-2H-benzo[1,4]thiazin-6-yl)-oxazolidin-5-ylmethyl]-amino}-ethyl)-1,2,5,6-tetrahydro-pyrrolo[3,2,1-ij]quinolin-4-one]", "values": [
      {"measurement": "MIC", "result": "≤ 0.031", "unit": "µg/mL"}
    ]},
    {"molecule": "O=C1COc2ccc(N3C[C@H](CCNCC4Cn5c(=O)ccc6cccc4c65)OC3=O)cc2N1", "note": "(mixture of isomers) [Example 62, (RS)-1-({2-[(S)-2-oxo-3-(3-oxo-3,4-dihydro-2H-benzo[1,4]oxazin-6-yl)-oxazolidin-5-yl]-ethylamino}-methyl)-1,2-dihydro-pyrrolo[3,2,1-U]quinolin-4-one]", "values": [
      {"measurement": "MIC for M. catarrhalis A894", "result": "≦0.031 mg/l"}
    ]},
    {"molecule": "O=C1CSc2ccc(N3C[C@@H](CCCN[C@@H]4Cn5c(=O)ccc6ncc(F)c4c65)OC3=O)nc2N1", "note": "[Example 147, (S)-3-fluoro-4-{3-[(R)-2-oxo-3-(3-oxo-3,4-dihydro-2H-pyrido[3,2-b][1,4]thiazin-6-yl)-oxazolidin-5-yl]-propylamino}-4,5-dihydro-pyrrolo[3,2,1-de][1,5]naphthyridin-7-one]", "values": [
      {"measurement": "MIC", "result": "≤ 0.031", "unit": "µg/mL"}
    ]},
    {"molecule": "Cl.O=C1CSc2ccc(N3C[C@H](CCCN[C@H]4Cn5c(=O)ccc6c(C(=O)O)ccc4c65)OC3=O)cc2N1", "note": "[Example 121, (R)-4-oxo-1-{3-[(S)-2-oxo-3-(3-oxo-3,4-dihydro-2H-benzo[1,4]thiazin-6-yl)-oxazolidin-5-yl]-propylamino}-1,2-dihydro-4H-pyrrolo[3,2,1-ij]quinoline-7-carboxylic acid hydrochloride]", "values": [
      {"measurement": "MIC", "result": 0.125, "unit": "µg/mL"}
    ]},
    {"molecule": "O=C1CSc2ccc(N3C[C@@H](CCCN[C@@H]4Cn5c(=O)ccc6ncc(F)c4c65)OC3=O)cc2N1", "note": "[Example 145, (S)-3-fluoro-4-{3-[(R)-2-oxo-3-(3-oxo-3,4-dihydro-2H-benzo[1,4]thiazin-6-yl)-oxazolidin-5-yl]-propylamino}-4,5-dihydro-pyrrolo[3,2,1-de][1,5]naphthyridin-7-one]", "values": [
      {"measurement": "MIC", "result": "≤ 0.031", "unit": "µg/mL"}
    ]},
    {"molecule": "O=C1COc2ccc(N3C[C@@H](CCCN[C@@H]4Cn5c(=O)cnc6ccc(F)c4c65)OC3=O)cc2N1", "note": "[Example 57, (S)-7-fluoro-6-{3-[(R)-2-oxo-3-(3-oxo-3,4-dihydro-2H-benzo[1,4]oxazin-6-yl)-oxazolidin-5-yl]-propylamino}-5,6-dihydro-pyrrolo[1,2,3-de]quinoxalin-3-one]", "values": [
      {"measurement": "MIC", "result": "≤ 0.031", "unit": "µg/mL"}
    ]},
    {"molecule": "O=C1CSc2ccc(N3C[C@H](CCCN[C@@H]4Cn5c(=O)ccc6ccc(F)c4c65)OC3=O)nc2N1", "note": "[Example 191, (S)-9-fluoro-1-{3-[(S)-2-oxo-3-(3-oxo-3,4-dihydro-2H-pyrido[3,2-b][1,4]thiazin-6-yl)-oxazolidin-5-yl]-propylamino}-1,2-dihydro-pyrrolo[3,2,1-U]quinolin-4-one]", "values": [
      {"measurement": "MIC for M. catarrhalis A894", "result": "≦0.031 mg/l"}
    ]},
    {"molecule": "O=C1COc2ccc(N3C[C@@H](CCCN[C@@H]4Cn5c(=O)cnc6ccc(F)c4c65)OC3=O)nc2N1", "note": "[Example 71, (S)-7-fluoro-6-{3-[(R)-2-oxo-3-(3-oxo-3,4-dihydro-2H-pyrido[3,2-b][1,4]oxazin-6-yl)-oxazolidin-5-yl]-propylamino}-5,6-dihydro-pyrrolo[1,2,3-de]quinoxalin-3-one]", "values": [
      {"measurement": "MIC", "result": "≤ 0.031", "unit": "µg/mL"}
    ]},
    {"molecule": "O=C1COc2ccc(N3C[C@@H](CCCN[C@@H]4Cn5c(=O)ccc6cccc4c65)OC3=O)cc2N1", "note": "[Example 73, (S)-1-{3-[(R)-2-oxo-3-(3-oxo-3,4-dihydro-2H-benzo[1,4]oxazin-6-yl)-oxazolidin-5-yl]-propylamino}-1,2-dihydro-pyrrolo[3,2,1-ij]quinolin-4-one]", "values": [
      {"measurement": "MIC", "result": "≤ 0.031", "unit": "µg/mL"}
    ]},
    {"molecule": "O=C1CSc2ccc(N3C[C@H](CCNCC4CN5C(=O)CCc6ccc(F)c4c65)OC3=O)cc2N1", "note": "(mixture of isomers) [Example 29, (1RS)-9-fluoro-1-({2-[(S)-2-oxo-3-(3-oxo-3,4-dihydro-2H-benzo[1,4]thiazin-6-yl)-oxazolidin-5-yl]-ethylamino}-methyl)-1,2,5,6-tetrahydro-pyrrolo[3,2,1-ij]quinolin-4-one]", "values": [
      {"measurement": "MIC", "result": "≤ 0.031", "unit": "µg/mL"}
    ]},
    {"molecule": "O=C1O[C@H](CCNC[C@@H]2Cn3c(=O)ccc4ccc(F)c2c43)CN1c1ccc2c(n1)OCCO2", "note": "(racemic) [Example 43, (RS)-1-({2-[(RS)-3-(2,3-dihydro-[1,4]dioxino[2,3-b]pyridin-6-yl)-2-oxo-oxazolidin-5-yl]-ethylamino}-methyl)-9-fluoro-1,2-dihydro-pyrrolo[3,2,1-ij]quinolin-4-one]", "values": [
      {"measurement": "MIC", "result": 1, "unit": "µg/mL"}
    ]},
    {"molecule": "O=C1CSc2ccc(N3C[C@H](CCN[C@@H]4Cn5c(=O)ccc6cccc4c65)OC3=O)cc2N1", "note": "[Example 88, (S)-1-{2-[(S)-2-oxo-3-(3-oxo-3,4-dihydro-2H-benzo[1,4]thiazin-6-yl)-oxazolidin-5-yl]-ethylamino}-1,2-dihydro-pyrrolo[3,2,1-ij]quinolin-4-one]", "values": [
      {"measurement": "MIC", "result": "≤ 0.031", "unit": "µg/mL"}
    ]},
    {"molecule": "Cl.O=C1CSc2ccc(N3C[C@@H](CCCN[C@@H]4c5c(F)ccc6ccc(=O)n(c56)[C@H]4C(=O)O)OC3=O)cc2N1", "note": "(relative stereo) [Example 186, (1R*,2R*)-9-fluoro-4-oxo-1-{3-[(R)-2-oxo-3-(3-oxo-3,4-dihydro-2H-benzo[1,4]thiazin-6-yl)-oxazolidin-5-yl]-propylamino}-1,2-dihydro-4H-pyrrolo[3,2,1-ij]quinoline-2-carboxylic acid hydrochloride]", "values": [
      {"measurement": "MIC", "result": 0.5, "unit": "µg/mL"}
    ]},
    {"molecule": "Cc1ccc2ccc(=O)n3c2c1C(NCCC[C@@H]1CN(c2ccc4c(c2)NC(=O)CS4)C(=O)O1)C3", "note": "(mixture of isomers) [Example 152, (RS)-9-methyl-1-{3-[(R)-2-oxo-3-(3-oxo-3,4-dihydro-2H-benzo[1,4]thiazin-6-yl)-oxazolidin-5-yl]-propylamino}-1,2-dihydro-pyrrolo[3,2,1-ij]quinolin-4-one]", "values": [
      {"measurement": "MIC", "result": "≤ 0.031", "unit": "µg/mL"}
    ]},
    {"molecule": "(1R,2R)-2-(1-hydroxy-1-methyl-ethyl)-1-{3-[(R)-2-oxo-3-(3-oxo-3,4-dihydro-2H-benzo[1,4]thiazin-6-yl)-oxazolidin-5-yl]-propylamino}-1,2-dihydro-pyrrolo[3,2,1-ij]quinolin-4-one and (1S,2S)-2-(1-hydroxy-1-methyl-ethyl)-1-{3-[(R)-2-oxo-3-(3-oxo-3,4-dihydro-2H-benzo[1,4]thiazin-6-yl)-oxazolidin-5-yl]-propylamino}-1,2-dihydro-pyrrolo[3,2,1-ij]quinolin-4-one [Example 170]", "values": [
      {"measurement": "MIC for M. catarrhalis A894", "result": 0.25, "unit": "µg/mL"}
    ]},
    {"molecule": "O=C1COc2ccc(N3C[C@@H](CCCN(CCO)[C@@H]4Cn5c(=O)cnc6ccc(F)c4c65)OC3=O)cc2N1", "note": "[Example 67, (S)-7-fluoro-6-((2-hydroxy-ethyl)-{3-[(R)-2-oxo-3-(3-oxo-3,4-dihydro-2H-benzo[1,4]oxazin-6-yl)-oxazolidin-5-yl]-propyl}-amino)-5,6-dihydro-pyrrolo[1,2,3-de]quinoxalin-3-one]", "values": [
      {"measurement": "MIC", "result": "≤ 0.063", "unit": "µg/mL"}
    ]},
    {"molecule": "O=C1COc2ccc(N3C[C@@H](CCNCC4Cn5c(=O)ccc6ncc(F)c4c65)OC3=O)cc2N1", "note": "(mixture of isomers) [Example 103, (RS)-3-fluoro-4-({2-[(R)-2-oxo-3-(3-oxo-3,4-dihydro-2H-benzo[1,4]oxazin-6-yl)-oxazolidin-5-yl]-ethylamino}-methyl)-4,5-dihydro-pyrrolo[3,2,1-de][1,5]naphthyridin-7-one]", "values": [
      {"measurement": "MIC", "result": "≤ 0.031", "unit": "µg/mL"}
    ]},
    {"molecule": "O=C1COc2ccc(N3C[C@H](CCCNC4Cn5c(=O)ccc6ncc(F)c4c65)OC3=O)cc2N1", "note": "(mixture of isomers) [Example 97, (RS)-3-fluoro-4-{3-[(S)-2-oxo-3-(3-oxo-3,4-dihydro-2H-benzo[1,4]oxazin-6-yl)-oxazolidin-5-yl]-propylamino}-4,5-dihydro-pyrrolo[3,2,1-de][1,5]naphthyridin-7-one]", "values": [
      {"measurement": "MIC", "result": "≤ 0.031", "unit": "µg/mL"}
    ]}
  ]
}
